{"source": "paper PMC3646541", "about": "(Nature protocols, 2011)", "test_system": "four of the six Bcl-2 family proteins", "assay": "Multiplex flow cytometry competition dose-response against F-Bim", "format": "binding", "conditions": "constant 50 nM F-Bim, dose-response series (Fig. 2b)", "data": [{"smiles": "CN(C)CC[C@H](CSc1ccccc1)Nc1ccc(S(=O)(=O)NC(=O)c2ccc(N3CCN(Cc4ccccc4-c4ccc(Cl)cc4)CC3)cc2)cc1[N+](=O)[O-]", "note": "[ABT-737]", "values": [{"measurement": "ability to block F-Bim binding", "value": "block F-Bim binding to four of them at relatively low concentrations"}]}]}
